We go through 33 compounds from the METLIN SMRT retention time set (Domingo-Almenara et al. 2019).

SMILES strings stand for the structures.

A short description of this data set: gradient 5% acetonitrile 3 min, to 50% in 2 min, to 85% in 15 min, held 3 min, 100 µL/min. As to conditions: column: Zorbax Extend-C18 2.1 x 50 mm; eluents: water / acetonitrile, 0.1% formic acid. A digest of the protocol:
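Over 3 months, pure standards in mixtures of ~100 molecules were run by HPLC coupled to a quadrupole time-of-flight mass spectrometer in positive and negative ionization mode. The column was a Zorbax Extend-C18 (2.1 × 50 mm, 1.8 μm) at 100 μL/min, eluted with water and acetonitrile each holding 0.1% formic acid, with 40 μL dead and 900 μL dwell volumes. Retention time was determined from adduct peaks chosen by software and checked manually.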
`O=C(NCCCO)C(=O)Nc1ccc(Cl)c(C(F)(F)F)c1` registered an RP-LC retention time of 795 s.

The compound `Cn1cc(C2=C(c3cn(CCCSC(=N)N)c4ccccc34)C(=O)NC2=O)c2ccccc21` registered an RP-LC retention time of 767 s.

`Cc1cc(NC(=O)CN2C(=O)CCc3cc(Br)ccc32)c2ccccc2n1` came in with an RP-LC retention time of 684 s.

Take `COc1cccc(-c2ccc(=O)n(CCc3nc(-c4ccc(Br)cc4)no3)n2)c1`: the RP-LC retention time came to 1110 s.

For `CNC(=O)CCC[C@@H]1[C@H]2CCCN3CCC[C@@H](CN1C(=O)CC(C)C)[C@@H]23`, the RP-LC retention time was found to be 568 s.

With `Cc1cc(C2CCCN2C(=O)Nc2ccc(C)c(C)c2)no1` (stereo not drawn), the RP-LC retention time worked out at 857 s.

In the case of `COc1cccc(N2CCN(C(=O)CCc3nnc4c5cc(-c6ccccc6)nn5ccn34)CC2)c1`, the RP-LC retention time was determined as 791 s.

`COc1ccc(CC(=O)Nc2ccc(Nc3cc(OC)nc(C)n3)cc2)cc1` showed an RP-LC retention time of 617 s.

Compound `COc1ccc(C(=O)Nc2cccn3nc(C(C)C)nc23)cc1` registered an RP-LC retention time of 873 s.

`CSc1ccc(C2c3[nH]c4ccccc4c3CCN2C(=O)c2ccncc2)cc1` (stereo not drawn) had an RP-LC retention time of 958 s.

On to `O=C(NCC#CCN1CCc2ccccc2C1)c1cc(C2CC2)on1`, for which the RP-LC retention time came out at 579 s.

`Cc1cc2nn(CC(=O)Nc3ccc(F)c(Cl)c3)c(=O)n2c(N2CCCC2)n1` returned an RP-LC retention time of 836 s.

For the compound `Cc1ccc(Nc2ncccc2C(=O)O)cc1C`, the RP-LC retention time worked out at 707 s.

Compound `CCc1noc(-c2cccnc2N2CCCN(Cc3c(F)cccc3Cl)CC2)n1` gave an RP-LC retention time of 668 s.

In the case of `O=C(NCCCN1CCCC1)C1CCCN(c2ncc(-c3ccc(F)cc3)cn2)C1` (stereo not drawn), the RP-LC retention time amounted to 674 s.

As for `CCc1cc(-c2csc(S(=O)(=O)Nc3cc(C)cc(C)c3)c2)on1`, the RP-LC retention time worked out at 1050 s.

With `Cc1cccc(NC(=O)CSc2nc(=O)n(CCN(C)C)c3c2CCC3)c1`, the RP-LC retention time worked out at 570 s.

The compound `Cn1nccc1C(=O)Nc1sc(-c2ccccc2)cc1C(N)=O` yielded an RP-LC retention time of 810 s.

Consider `CCCNC(=O)CCc1nc2ccccc2n(CC(=O)Nc2ccc(OC)cc2)c1=O`, for which the RP-LC retention time was 746 s.

As to `O=C(Nc1ccccc1)N1CCc2nc[nH]c2C1`, the RP-LC retention time stood at 560 s.

`CN1c2cc(C(=O)NCc3ccc(F)cc3F)ccc2C(=O)N2CCCCC21` (stereo not drawn) yielded an RP-LC retention time of 813 s.

`CCOc1ccc(-c2csc(NC(=O)CCCOc3ccc(CC)cc3)n2)cc1` returned an RP-LC retention time of 1290 s.

For the compound `COC(=O)C1=CN(c2cccc(C)c2C)c2ccccc2S1(=O)=O`, the RP-LC retention time was 916 s.

The compound `CC1CCCCN1CCCNC(=O)CCCn1c(=O)c2cccn2c2ccc(F)cc21` (stereo not drawn) displayed an RP-LC retention time of 639 s.

As to `CCN1CCN(CCNC(=O)c2sc3ncccc3c2-n2c(C)ccc2C)CC1`, the RP-LC retention time stood at 574 s.

`CCN1CCN(CCNC(=O)c2ccc(-c3ccc4c(c3)CCN4C(C)=O)cc2)CC1` showed an RP-LC retention time of 598 s.

As to `CN(CCNC(=O)NCc1noc2ccccc12)C1CCCCC1`, the RP-LC retention time was 558 s.

`COCCn1cc2c3c(cccc31)CN(C(=O)Cc1ccccc1Cl)CC2` gave an RP-LC retention time of 975 s.

As for `Cc1cc(C)n(-c2nccnc2SCC(=O)Nc2cccc(Cl)c2C)n1`, the RP-LC retention time turned out to be 871 s.

As for `O=S(=O)(c1ccccc1-c1nc(-c2ccccc2)no1)N1CCN(c2ccccc2)CC1`, the RP-LC retention time turned out to be 1220 s.

As for `CCC(C)NC(=O)C1CCN(S(=O)(=O)c2c(C)nn(-c3ccccc3)c2C)CC1` (stereo not drawn), the RP-LC retention time turned out to be 830 s.

Take `Cc1cc(C)c(S(=O)(=O)N2CCCC2c2nc(-c3ccc(Cl)cc3)no2)c(C)c1` (stereo not drawn): the RP-LC retention time turned out to be 1360 s.

Turning to `CC(C)N1CCN(C(=O)c2cnc(-c3ccccc3)nc2-c2ccncc2)CC1`, the RP-LC retention time was determined as 626 s.
